Data taken from ChEMBL document CHEMBL1201862, “PubChem BioAssay data set” (2004).
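Exposure lasted 48 hours, with cells grown in 96-well plates and compounds tested at five concentrations. GI50 marks 50% less growth.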 The source made the active and inactive calls. Rule as the data show it: active = GI50 up to about 1.1 µM and inactive = higher.

Tests used:
Assay in all cases: DTP human tumour cell line panel, 48 h
NCI-H460 = tested on: NCI-H460
HL-60 = tested on: HL-60
M14 = tested on: M14
HT-29 = tested on: HT-29
SK-OV-3 = tested on: SK-OV-3
KM12 = tested on: KM12
MDA-MB-435 = tested on: MDA-MB-435
NCI-H522 = tested on: NCI-H522
EKVX = tested on: EKVX
A549 = tested on: A549
SW-620 = tested on: SW-620
HCC 2998 = tested on: HCC 2998
UO-31 = tested on: UO-31
RXF 393 = tested on: RXF 393
HCT-116 = tested on: HCT-116
MOLT-4 = tested on: MOLT-4
RPMI-8226 = tested on: RPMI-8226
U-251 = tested on: U-251
MCF7 = tested on: MCF7
SF-539 = tested on: SF-539

Measured: GI50

COc1cc(OC)c2nc(C)c3c(c2c1)SCC3
inactive: NCI-H460 23.7 µM | HL-60 78 µM | M14 41.4 µM | HT-29 40.6 µM | SK-OV-3 27.7 µM | KM12 68.5 µM | MDA-MB-435 25.5 µM | NCI-H522 36.1 µM | EKVX 10.1 µM | A549 21.1 µM | SW-620 27 µM | HCC 2998 46.9 µM | UO-31 21.9 µM | RXF 393 24.3 µM | HCT-116 22.2 µM | MOLT-4 > 100 µM | RPMI-8226 25.9 µM | U-251 29.8 µM | MCF7 15.6 µM | SF-539 18.5 µM

Nc1ccc2c(c1)NC(=O)[C@@H]1CCCN1C2=O
inactive: NCI-H460 > 100 µM | HL-60 > 100 µM | M14 > 100 µM | HT-29 > 100 µM | SK-OV-3 > 100 µM | KM12 > 100 µM | MDA-MB-435 > 100 µM | NCI-H522 > 100 µM | EKVX > 100 µM | A549 > 100 µM | SW-620 > 100 µM | HCC 2998 > 100 µM | UO-31 > 100 µM | RXF 393 > 100 µM | HCT-116 > 100 µM | MOLT-4 > 100 µM | RPMI-8226 > 100 µM | U-251 > 100 µM | MCF7 > 100 µM | SF-539 > 100 µM

O=C1OC([C@H](O)c2cccnc2)c2ccccc21 (stereo not given in full)
inactive: NCI-H460 > 10 µM | HL-60 > 10 µM | M14 > 10 µM | HT-29 > 10 µM | SK-OV-3 > 10 µM | KM12 > 10 µM | MDA-MB-435 > 10 µM | NCI-H522 > 10 µM | EKVX > 10 µM | A549 > 10 µM | SW-620 > 10 µM | HCC 2998 > 10 µM | UO-31 > 10 µM | RXF 393 > 10 µM | HCT-116 > 10 µM | MOLT-4 > 10 µM | RPMI-8226 > 10 µM | U-251 > 10 µM | MCF7 > 10 µM | SF-539 > 10 µM

COc1cc(/C=C2\CCC/C(=C\c3ccc(O)c(OC)c3)C2=O)ccc1O [CYCLOVALONE]
inactive: NCI-H460 2.59 µM | HL-60 1.47 µM | M14 2.25 µM | HT-29 7.6 µM | SK-OV-3 3.73 µM | KM12 2.87 µM | MDA-MB-435 3.13 µM | NCI-H522 1.57 µM | EKVX 6.84 µM | A549 2.73 µM | SW-620 2.7 µM | HCC 2998 2.77 µM | UO-31 2.13 µM | RXF 393 2.24 µM | HCT-116 2.07 µM | MOLT-4 2.83 µM | RPMI-8226 1.2 µM | U-251 2.08 µM | MCF7 4.33 µM | SF-539 2.04 µM
